From patent US11980607B2, “Methods of treating malignant lymphoproliferative disorders” (Actuate Therapeutics Inc., priority 2018, dated 2024)

Legend:
[1] = test system: purified normal unstimulated T lymphocytes or peripheral blood mononuclear cells; experiment: Apoptosis assay in normal cells; type: cell-based, human; settings: even at 10.0 μM 9-ING-41
Description: (§1) Unstimulated peripheral blood B- and T-lymphocytes isolated from a healthy donor were used as normal control. Pro-apoptotic effect of the GSK3 inhibitor 9-ING-41 in various MCL and TCL lines (A) and DLBCL lines (B). (C) Cell proliferation profile of various lymphoma cell lines upon treatment with 9-ING-41. Results (A-C) are from 3 independent experiments.
Cells were seeded at 5×10^5 cells/well in 24 well plates, and incubated with 9-ING-41 at indicated concentrations for 48 hours. The cells were then stained with FITC conjugated Annexin V (Life Technologies) and Propidium Iodide followed by analysis on a BD FACS Calibur flow cytometer.
Given that both GSK3α and GSK3β are overexpressed in lymphoma cells, and that both enzymes are implicated in multiple signaling pathways critical for cell functions, whether GSK3α and GSK3β are functionally supporting the survival and proliferation of lymphoma cells was examined. […] The inhibitory concentrations of 9-ING-41 at half of the maximal effect (IC50) on cell survival of various lymphoma cell lines was calculated (Table 1).

[2] = test system: TCL and MCL lines; experiment: Thymidine incorporation assay in TCL and MCL lines; type: cell-based, human; settings: 9-ING-41 concentrations as low as 1.0 μM
Description: as §1
Cells were seeded at 1×10^4 cells/well in 96 well plates, and incubated with 9-ING-41 at indicated concentrations for 48 hours followed by pulsing with tritium labeled thymidine for overnight before being analyzed for thymidine uptake.
9-ING-41 can specifically induce lymphoma cell apoptosis without affecting normal lymphocytes. The thymidine incorporation assay in the presence or absence of 9-ING-41 was performed to test the role of GSK3 in lymphoma cell proliferation. […] The DLBCL lines required slightly higher concentrations. The IC50 of 9-ING-41 on cell proliferation for various lymphoma cell lines was calculated (Table 1).

[3] = test system: primary lymphoma cells freshly isolated from patients; experiment: Proliferation of primary lymphoma patient cells; type: cell-based, human; settings: 5 patient samples (MCL, high grade B-cell lymphoma, follicular 3B, DLBCL, angioimmunoblastic TCL)
Source text: (A) Immunoblot of GSK-3α and GSK-3β proteins showing overexpression in patient samples vs normal B-cell control. P1: MCL; P2: High grade B-cell lymphoma; P3: follicular large B-cell lymphoma 3B; P4: DLBCL; P5: angioimmunoblastic T-cell lymphoma. (B) 9-ING-41 inhibited proliferation in all 5 patient samples. (C) Immunohistochemistry staining of GSK-3β on paraffin tissue sections of patients with various lymphoma. Representative images show the spectrum of GSK-3β (in brown) overexpression in different lymphoma samples. […] Images were collected under 40× magnification.
Lymphoma tissue samples were obtained from patients after written informed consent. This Lymphoma SPORE biospecimens protocol was approved by the Mayo Clinic Institutional Review Board in accordance with the Declaration of Helsinki. All primary patient samples were biopsy tissues from spleen or lymph nodes. Fresh tissue samples were gently dissociated into cell suspension and subjected to Ficoll-Paque density gradient centrifugation. Primary lymphoma cells were then used directly for proliferation assay, or stored in −80° C. for Western analysis later after lymphoma diagnosis confirmation.
Cells were seeded at 1×10^4 cells/well in 96 well plates, and incubated with 9-ING-41 at indicated concentrations for 48 hours followed by pulsing with tritium labeled thymidine for overnight before being analyzed for thymidine uptake. […]

[4] = test system: Jeko derived xenograft; experiment: Jeko derived MCL xenograft mouse model; type: in vivo; settings: NSG mice, 40 mg/kg every other day IP, day 17
Source text: The images shown were collected at the end of the experiment (day 17). […] An MCL xenograft mouse model was established by subcutaneously injecting NGS mice with Jeko cells expressing the firefly luciferase reporter gene Fluc. NSG (NOD.Cg-PrkdcscidIl2rgtm1Wjl/SzJ) mice used in these experiments were purchased from the Jackson Laboratory (Bar Harbor, Maine). Eight to ten mice of same sex at 8 weeks of age were subcutaneously injected with 5×10^6 Fluc expressing Jeko cells in the right flanks. Tumor engraftment was verified by imaging 4 days after Jeko cell inoculation. […] Tumor volumes were measured by an IVIS Imager (Xenogen, Alameda, CA) 20 minutes after IP injection of 200 ul of 15 mg/ml D-leuciferin (GoldBio, St. Louis, MO) and anesthetized with 2.5% isoflurane. All imaging variables were kept consistent for comparativeness. The experiment terminated when the largest tumor met the size limit of the IACUC protocol.

[5] = test system: Diffuse large B-cell lymphoma; experiment: Treatment of Diffuse Large B-cell Lymphoma in a human; type: in vivo; settings: 1 mg/kg per day, six 21 day cycles
Description: A human suffering from Diffuse large B-cell lymphoma is administered 1 mg/kg per day of 9-ING-41 for six 21 day cycles. After treatment, the human's DLBCL is in remission.

How did the “Apoptosis in normal cells” value [1] turn out when `Cn1cc(C2=C(c3coc4ccc(F)cc34)C(=O)NC2=O)c2cc3c(cc21)OCO3` [9-ING-41, 3-(5-Fluorobenzofuran-3-yl)-4-(5-methyl-5H-[1,3]dioxolo[4,5-f]indol-7-yl)pyrrole-2,5-dione] was run?
Its value is “no significant apoptosis”.

What about the “Proliferation rate of all TCL and MCL lines” value [2] of the same compound?
Its value is “profoundly inhibited”.

What about the “Antiproliferative effect in primary patient cells” value [3] of the same compound?
Its value is “similarly responsive to the antiproliferative effects”.

And the “Tumor size and luciferase activity versus control” value [4]?
Its value is “smaller tumors with much lower luciferase activity”.

And the Outcome after treatment [5]?
Its Outcome after treatment is “in remission”.
